Laboratory results reported in patent US12398140B2, “Substituted pyrrolo [2,3-d]pyrimidines for treating familial dysautonomia” (PTC THERAPEUTICS, INC., priority 2019, dated 2025).

system: Elongator complex protein 1 (ELPI, also referred to as IKBKAP); assay: IKBKAP-HTRF assay (IKBKAP protein in lysates of FD patient-derived fibroblasts); format: cell-based, human; settings: FD patient-derived fibroblasts GM04589, 48 hours, 7-point concentration curve
Procedure: The assay is used for the quantitative determination of Elongator complex protein 1 (ELPI, also referred to as IKBKAP) concentration in cell lysates using the HTRF® (Homogeneous Time-Resolved Fluorescence) technology. IKBKAP is detected in a sandwich HTRF assay by use of an anti-IKAP antibody labeled with a donor and an anti-IKAP antibody labeled with an acceptor.
Cells were thawed and incubated in DMEM-10% FBS for 72 hours. Cells were trypsinized, counted, and re-suspended to a concentration of 50,000 cells/ml in DMEM-10% FBS. A 199 μL aliquot of the cell suspensions were plated at 10,000 cells per well in a 96 well microtiter plate and incubated for 3 to 5 hours. […] Test compounds were serially diluted 3.16-fold in 100% DMSO to generate a 7-point concentration curve. A 1 μL aliquot of 200× compound solution was transferred to cell-containing wells, and cells were incubated for 48 hours in a cell culture incubator (37° C., 5% CO2, 100% relative humidity). Triplicate samples were set up for each compound concentration. After 48 hours, the supernatant was removed from the cells and 50 μL of the 1×LB4 lysis buffer, containing protease inhibitors, was added to the cells and incubated with shaking at room temperature for 1 hour. A 36 μL aliquot of this lysate was subsequently transferred to the 384-well plate containing 4 μL of the antibody solution (1:50 dilution of anti IKAP d2 and anti-IKAP K(9+8) in detection buffer). The 384-well plate was then centrifuged for 1 minute to bring the solutions to the bottom of the plate and incubated overnight at 4° C. Fluorescence for each well of the plate at 665 nm and 620 nm was measured was on the EnVision plate reader (Perkin Elmer). The ΔF for each sample is calculated by:
[formula] wherein Signal is the normalized fluorescence for each sample well and Blank is the average normalized average fluorescence for the Blank control wells.
The maximum fold increase (MFI) in IKBKAP protein abundance for compounds of Formula (I) or a form thereof relative to the vehicle control are provided in Table 1. MFI was calculated by dividing the ΔF value for each sample well by the sample ΔF for the vehicle control wells.
The EC2x for IKBKAP protein expression obtained from the 7-point concentration curve generated for each test compound according to the protocol in Biological Example 1 are also provided in Table 1. The term “EC2x for IKBKAP protein expression” is defined as the concentration of test compound that is effective in producing two times the amount of IKBKAP protein in a FD patient cell compared to the amount produced from the DMSO vehicle control.

| Compound | EC2x for IKBKAP protein expression (concentration producing two times the amount of IKBKAP protein vs DMSO vehicle control) | MFI (maximum fold increase in IKBKAP protein abundance relative to the vehicle control) |
| --- | --- | --- |
| C[C@H](N)Cc1[nH]c2nc(Cl)nc(NCc3ccco3)c2c1Br.Cl [Cpd 19, 6-[(2S)-2-aminopropyl]-5-bromo-2-chloro-N-[(furan-2-yl)methyl]-7H-pyrrolo[2,3-d]pyrimidin-4-amine hydrochloride] | **** (between >0.005 μM and ≤0.02 μM is indicated by four stars (****)) | **** (between >3.9 and ≤4.9 is indicated by four stars (****)) |
| C[C@H](N)Cc1cc2c(NCc3ccncc3)nc(Cl)nc2[nH]1 [Cpd 20, 6-[(2S)-2-aminopropyl]-2-chloro-N-[(pyridin-4-yl)methyl]-7H-pyrrolo[2,3-d]pyrimidin-4-amine] | *** (between >0.02 μM and ≤0.5 μM is indicated by three stars (***)) | ***** (>4.9 is indicated by five stars (*****)) |
| CC[C@H](N)Cc1[nH]c2nc(Cl)nc(NCc3ccco3)c2c1Cl.Cl [Cpd 21, 6-[(2S)-2-aminobutyl]-2,5-dichloro-N-[(furan-2-yl)methyl]-7H-pyrrolo[2,3-d]pyrimidin-4-amine hydrochloride] | **** (between >0.005 μM and ≤0.02 μM is indicated by four stars (****)) | **** (between >3.9 and ≤4.9 is indicated by four stars (****)) |
| C[C@H](N)Cc1cc2c(NCc3nccs3)nc(Cl)nc2[nH]1.Cl [Cpd 22, 6-[(2S)-2-aminopropyl]-2-chloro-N-[(1,3-thiazol-2-yl)methyl]-7H-pyrrolo[2,3-d]pyrimidin-4-amine hydrochloride] | **** (between >0.005 μM and ≤0.02 μM is indicated by four stars (****)) | ***** (>4.9 is indicated by five stars (*****)) |
| C[C@H](N)Cc1c(Cl)c2c(NCc3ccco3)nc(Cl)nc2n1C.Cl [Cpd 23, 6-[(2S)-2-aminopropyl]-2,5-dichloro-N-[(furan-2-yl)methyl]-7-methyl-7H-pyrrolo[2,3-d]pyrimidin-4-amine hydrochloride] | **** (between >0.005 μM and ≤0.02 μM is indicated by four stars (****)) | ***** (>4.9 is indicated by five stars (*****)) |
| C[C@H](N)Cc1c(F)c2c(NCc3ccco3)nc(Cl)nc2n1C.Cl [Cpd 24, 6-[(2S)-2-aminopropyl]-2-chloro-5-fluoro-N-[(furan-2-yl)methyl]-7-methyl-7H-pyrrolo[2,3-d]pyrimidin-4-amine hydrochloride] | **** (between >0.005 μM and ≤0.02 μM is indicated by four stars (****)) | ***** (>4.9 is indicated by five stars (*****)) |
| C[C@H](N)Cc1cc2c(NCc3cccs3)nc(Cl)nc2[nH]1.Cl [Cpd 25, 6-[(2S)-2-aminopropyl]-2-chloro-N-[(thiophen-2-yl)methyl]-7H-pyrrolo[2,3-d]pyrimidin-4-amine hydrochloride] | **** (between >0.005 μM and ≤0.02 μM is indicated by four stars (****)) | ***** (>4.9 is indicated by five stars (*****)) |
| CC[C@H](N)Cc1cc2c(NCc3ccco3)nc(Cl)nc2[nH]1 [Cpd 26, 6-[(2S)-2-aminobutyl]-2-chloro-N-[(furan-2-yl)methyl]-7H-pyrrolo[2,3-d]pyrimidin-4-amine] | **** (between >0.005 μM and ≤0.02 μM is indicated by four stars (****)) | **** (between >3.9 and ≤4.9 is indicated by four stars (****)) |
| C[C@H](N)Cc1cc2c(NCc3ncco3)nc(Cl)nc2[nH]1.Cl [Cpd 27, 6-[(2S)-2-aminopropyl]-2-chloro-N-[(1,3-oxazol-2-yl)methyl]-7H-pyrrolo[2,3-d]pyrimidin-4-amine hydrochloride] | *** (between >0.02 μM and ≤0.5 μM is indicated by three stars (***)) | ***** (>4.9 is indicated by five stars (*****)) |
| CCCCc1c(C[C@H](C)N)[nH]c2nc(Cl)nc(NCc3ccco3)c12.Cl [Cpd 28, 6-[(2S)-2-aminopropyl]-5-butyl-2-chloro-N-[(furan-2-yl)methyl]-7H-pyrrolo[2,3-d]pyrimidin-4-amine hydrochloride] | * (An EC2x>1 μM is indicated by one star (*)) | * (An MFI≤1.9 is indicated by one star (*)) |
| CC(C)(C)[C@H](N)Cc1cc2c(NCc3ccco3)nc(Cl)nc2[nH]1.Cl [Cpd 29, 6-[(2R)-2-amino-3,3-dimethylbutyl]-2-chloro-N-[(furan-2-yl)methyl]-7H-pyrrolo[2,3-d]pyrimidin-4-amine hydrochloride] | *** (between >0.02 μM and ≤0.5 μM is indicated by three stars (***)) | **** (between >3.9 and ≤4.9 is indicated by four stars (****)) |
| C[C@H](N)Cc1cc2c(NCc3ccoc3)nc(Cl)nc2[nH]1.Cl [Cpd 30, 6-[(2S)-2-aminopropyl]-2-chloro-N-[(furan-3-yl)methyl]-7H-pyrrolo[2,3-d]pyrimidin-4-amine hydrochloride] | *** (between >0.02 μM and ≤0.5 μM is indicated by three stars (***)) | ***** (>4.9 is indicated by five stars (*****)) |
| C[C@H](N)Cc1cc2c(NCc3ccncc3F)nc(Cl)nc2[nH]1.Cl.Cl [Cpd 31, 6-[(2S)-2-aminopropyl]-2-chloro-N-[(3-fluoropyridin-4-yl)methyl]-7H-pyrrolo[2,3-d]pyrimidin-4-amine dihydrochloride] | **** (between >0.005 μM and ≤0.02 μM is indicated by four stars (****)) | ***** (>4.9 is indicated by five stars (*****)) |
| CC[C@H](C)[C@H](N)Cc1cc2c(NCc3ccco3)nc(Cl)nc2[nH]1.Cl [Cpd 32, 6-[(2R,3S)-2-amino-3-methylpentyl]-2-chloro-N-[(furan-2-yl)methyl]-7H-pyrrolo[2,3-d]pyrimidin-4-amine hydrochloride] | **** (between >0.005 μM and ≤0.02 μM is indicated by four stars (****)) | ***** (>4.9 is indicated by five stars (*****)) |
| Cc1c(C[C@H](C)N)[nH]c2nc(Cl)nc(NCc3ccco3)c12.Cl [Cpd 33, 6-[(2S)-2-aminopropyl]-2-chloro-N-[(furan-2-yl)methyl]-5-methyl-7H-pyrrolo[2,3-d]pyrimidin-4-amine hydrochloride] | ***** (≤0.005 μM is indicated by five stars (*****)) | ***** (>4.9 is indicated by five stars (*****)) |
| Cc1nc(NCc2ccco2)c2c(F)c(C[C@H](C)N)[nH]c2n1.Cl [Cpd 34, 6-[(2S)-2-aminopropyl]-5-fluoro-N-[(furan-2-yl)methyl]-2-methyl-7H-pyrrolo[2,3-d]pyrimidin-4-amine hydrochloride] | *** (between >0.02 μM and ≤0.5 μM is indicated by three stars (***)) | ***** (>4.9 is indicated by five stars (*****)) |
| Cc1c(C[C@H](C)N)n(C)c2nc(Cl)nc(NCc3ccco3)c12.Cl [Cpd 35, 6-[(2S)-2-aminopropyl]-2-chloro-N-[(furan-2-yl)methyl]-5,7-dimethyl-7H-pyrrolo[2,3-d]pyrimidin-4-amine hydrochloride] | **** (between >0.005 μM and ≤0.02 μM is indicated by four stars (****)) | ***** (>4.9 is indicated by five stars (*****)) |
